≈ marks a conversion by molar mass, not a printed value. Calls of active or inactive are those of the source. The rule behind the calls is not given here.
Legend:
[1] = Antioxidant activity assessed as DPPH radical scavenging activity after 30 mins; type: physicochemical
[2] = Antioxidant activity assessed as reduction of Fe3+ to Fe2+ after 20 mins; type: physicochemical
[3] = (§1) Neuroprotective activity against amyloid beta (25 to 35)-induced toxicity in rat PC12 cells assessed as increase in cell viability at 30 uM after 24 hrs by MTT assay relative to control; type: functional, PC-12
[4] = (§2) Neuroprotective activity against amyloid beta (25 to 35)-induced toxicity in rat PC12 cells assessed as increase in cell viability at 75 uM after 24 hrs by MTT assay relative to control; type: functional, PC-12
[5] = Cytotoxicity against rat PC12 cells assessed as cell viability at 150 uM after 24 hrs by MTT assay relative to control; type: cell-based; settings: pc-12, 24 h
[6] = Antioxidant activity assessed as ABTS radical scavenging activity after 6 mins; type: physicochemical
[7] = Cytotoxicity against rat PC12 cells assessed as cell viability at 30 uM after 24 hrs by MTT assay; type: cell-based; settings: pc-12, 24 h
PC-12 [8] = test: Neuroprotective activity against amyloid beta (25 to 35)-induced toxicity in rat PC12 cells assessed as increase in cell viability after 24 hrs by MTT assay; type: functional, cell-based
[9] = Cytotoxicity against rat PC12 cells assessed as cell viability at 75 uM after 24 hrs by MTT assay relative to control; type: cell-based; settings: pc-12, 24 h
PC-12 [10] = test: as §1; type: functional
PC-12 [11] = test: as §2; type: functional

IC50 [1] [µg/mL]	IC50 [2] [µg/mL]	IC50 [6] [µg/mL]	Compound	Activity [3] [%]	Activity [4] [%]	Activity [5]	Activity [7]	Activity (PC-12 [8])	Activity [9]	Activity (PC-12 [10])	Activity (PC-12 [11])
21.43 (≈ 46.5 µM)	39.81 (≈ 86.5 µM)	46.72 (≈ 101 µM)	O=C1C=C(c2ccc(O)cc2O[C@@H]2O[C@H](CO)[C@@H](O)[C@H](O)[C@H]2O)C(Cc2ccc(O)cc2)O1 (some centres undefined)			Toxic	Non-toxic		Non-toxic	inactive	inactive
25.93 (≈ 48.7 µM)	64.31 (≈ 121 µM)	60.64 (≈ 114 µM)	O=C(O)CC(=O)OC[C@H]1O[C@@H](Oc2ccc3c(c2)OCC2c4cc5c(cc4OC32)OCO5)[C@H](O)[C@@H](O)[C@@H]1O (some centres undefined)								
34.17 (≈ 79.4 µM)	57.21 (≈ 133 µM)	71.3 (≈ 166 µM)	COc1ccc(-c2coc3cc(O[C@@H]4O[C@H](CO)[C@@H](O)[C@H](O)[C@H]4O)ccc3c2=O)cc1 [ONONIN]								
9.23 (≈ 41.9 µM)	41.64 (≈ 189 µM)		Cc1cc(C(C)(C)C)c(O)c(C(C)(C)C)c1 [BUTYLATED HYDROXYTOLUENE]								

The next lines start with the compound.

Compound	IC50 [1] [µg/mL]	IC50 [2] [µg/mL]	IC50 [6] [µg/mL]	Activity [3] [%]	Activity [4] [%]	Activity [5]	Activity [7]	Activity (PC-12 [8])	Activity [9]	Activity (PC-12 [10])	Activity (PC-12 [11])
COc1cc(O[C@@H]2O[C@H](CO)[C@@H](O)[C@H](O)[C@H]2O)c(O)cc1-c1coc2cc(O)ccc2c1=O	20.45 (≈ 44.2 µM)										
COc1ccc2c(c1)O[C@H]1c3ccc(O)cc3OC[C@@H]21	45.91 (≈ 170 µM)	82.37 (≈ 305 µM)	86.29 (≈ 319 µM)	18	30	Toxic	Non-toxic	Dose-dependent effect	Non-toxic		
COc1ccc(C2=CC(=O)OC2Cc2ccc(O)cc2)c(O[C@@H]2O[C@H](CO)[C@@H](O)[C@H](O)[C@H]2O)c1 (some centres undefined)	25.67 (≈ 54.1 µM)	46.93 (≈ 98.9 µM)	61.39 (≈ 129 µM)			Toxic	Non-toxic		Toxic	inactive	
O=C1C=C(c2ccc(O)cc2O)C(Cc2ccc(O)cc2)O1 (centres undefined)	19.53 (≈ 65.5 µM)	38.52 (≈ 129 µM)	28.29 (≈ 94.8 µM)			Toxic	Non-toxic		Toxic	inactive	
OC[C@H]1O[C@@H](Oc2ccc3c(c2)OCC2c4cc5c(cc4OC32)OCO5)[C@H](O)[C@@H](O)[C@@H]1O (some centres undefined)	28.06 (≈ 62.9 µM)	70.37 (≈ 158 µM)	63.21 (≈ 142 µM)			Toxic	Non-toxic		Toxic	inactive	
COc1ccc(-c2coc3cc(O)ccc3c2=O)cc1 [FORMONONETIN]	43.51 (≈ 162 µM)	62.57 (≈ 233 µM)	77.42 (≈ 289 µM)								
O=c1c(O)c(-c2ccc(O)c(O)c2)oc2cc(O)cc(O)c12 [QUERCETIN]	4.89 (≈ 16.2 µM)		6.94 (≈ 23 µM)								
Oc1ccc2c(c1)OC[C@H]1c3cc4c(cc3O[C@@H]21)OCO4 [MAACKIAIN]	24.48 (≈ 86.1 µM)			5	15	Toxic	Non-toxic	Dose-dependent effect	Non-toxic		

Source: ChEMBL document CHEMBL3608220, “Isolation and structure elucidation of bioactive compounds from the roots of the Tunisian Ononis angustissima L” (Bioorg Med Chem Lett, 2015)
